Test results from patent publication US5849923A, “Heterocyclic-substituted naphthalenyl retinobenzoic acid derivatives” (Bristol-Myers Squibb Company, priority 1996, dated 1998).
Read-outs that look alike come from different tables or passages of the source.

Tests used:
L2987 = test: Cytotoxicity assay (alamarBlue), lung line L2987, experiment 2; type: cell-based; conditions: Homo sapiens, read-out: IC50 values for L2987 experiment 2
Protocol: FIG. 1 is the cytotoxicity dose response curves for lung line L2987. […] Briefly, the assayed involved plating 1000 cells per well in a volume of 120 μL in a 96 well flat-bottom dish (Corning) on day -1. Twenty-four hours later the appropriate dilution of a compound of formula I was added in a volume of 30 μL complete medium (final volume 150 μL). The plates were sealed with a plate sealer (Dynatech Labs) to prevent evaporation. On day 5 the mylar film was removed and 15 μL of sterile alamarblue was added to each well and the cells were incubated 37° C. 5% CO2 for two hours. Using a Vmax plate reader the optical density for each well was determined having the […]. The 100% signal was determined for cells grown in complete medium containing only 0.5% DMSO. All wells were set-up in triplicate and the mean values were plotted in FIG. 1.

[1] = system: squamous-cell carcinoma of the head and neck; conditions: Hong, W. K. et al., N. Engl. J. Med., 1990; cited from earlier work
rhino mouse utriculi = test: Rhino mouse utriculi reduction assay; type: in vivo, hairless rhino mice (hr^rh /hr^rh); conditions: once daily for 5 days; for ED30 (concentration to reach 30% (half-maximum) utriculi reduction): topical in ethanol vehicle (50 μl), female rhino mice, 0.00033 mM to 16.5 mM; for activity in rhino mouse utriculi reduction model (in words): topical
Protocol: Representatives from compounds of formula I were tested for their effect on utriculi reduction on rhino mouse and directly compared to all-trans retinoic acid.
Six to nine week old female hairless rhino mice (hr^rh /hr^rh) were produced in the Bristol-Myers Squibb colony. Test retinoids in ethanol vehicle (50 μl) were applied to the dorsal area (approximately 1.5×3 cm^2) of rhino mice once daily for 5 days (Monday to Friday). For various retinoids, a dose response was obtained with concentrations ranging from 0.00033 mM to 16.5 mM. The animals were sacrificed on the following Monday by CO2 inhalation. A 7/8" full thickness punch was taken from the central dorsal area of each animal. The epidermis of the biopsy was removed from the dermis after incubation in 0.5% acetic acid overnight at 4° C. The separated epidermis was then fixed in formalin, dehydrated with ethanol, and cleared in xylene. To determine the utriculi diameter, each epidermis sheet was placed on a glass slide in xylene. For each specimen, the diameter of 40 utricules was measured with an image analysis system (IBM PC, Image Measure program and Olympus microscope with video camera). % Utriculi reduction was calculated as [formula]
Since the maximum effect in this assay is approximately 60% utriculi reduction, the activity of various test compounds is reported as ED30 in Table 1, the concentration to reach 30% (half-maximum) utriculi reduction.

[2] = 120 h, L2987, experiment 2, read on day 5, alamarBlue

In the case of `CC1=C(/C=C/C(C)=C/C=C/C(C)=C/C(=O)O)C(C)(C)CCC1` [All trans retinoic acid, reference compound], the IC50 (L2987; L2987, 120 h) is reported as 68 µM.

For `CC1=C(/C=C/C(C)=C/C=C/C(C)=C\C(=O)O)C(C)(C)CCC1` [Isotretinoin], the “prevention of second primary tumors (in words)” value [1] is listed as “useful in prevention of second primary tumors”.

With `CC1(C)CC=C(c2cccs2)c2cc(C(=O)Nc3ccc(C(=O)O)cc3)ccc21` [I^2 a, 4-[[[[5,6-Dihydro-5,5-dimethvl-8-(2-thienyl)]-2naphthalenyl]carbonyl]amino]benzoic acid] the “ED30 (concentration to reach 30% (half-maximum) utriculi reduction)” value (rhino mouse utriculi) was over 10000 µM and the IC50 (L2987; [2]) was 64 µM.

Compound `Cc1ccsc1C1=CCC(C)(C)c2ccc(C(=O)Nc3ccc(C(=O)O)cc3)cc21` [I^2 b] has an IC50 (L2987; [2]) of 50 µM.

With `CC1(C)CC=C(c2ccsc2)c2cc(C(=O)Nc3ccc(C(=O)O)cc3)ccc21` [I^2 e, 4-[[[[5,6-Dihydro-5,5-dimethyl-8-(3-thienyl)]-2-naphthalenyl]carbonyl]amino]benzoic acid] the “ED30 (concentration to reach 30% (half-maximum) utriculi reduction)” value (rhino mouse utriculi) was 3890 µM.

For `CC1(C)CC=C(c2cccnc2)c2cc(C(=O)Nc3ccc(C(=O)O)cc3)ccc21` [I^2 f, 4-[[[[5,6-Dihydro-5,5-dimethyl-8-(3-pyridinyl)]-2-naphthalenyl]carbonyl]amino]benzoic acid], the “activity in rhino mouse utriculi reduction model (in words)” value (rhino mouse utriculi) was “inactive”.

In the case of `CC1(C)CC=C(c2ccoc2)c2cc(C(=O)Nc3ccc(C(=O)O)cc3)ccc21` [I^2 d, 4-[[[[5,6-Dihydro-5,5-dimethyl-8-(3-furyl)]-2-naphthalenyl]carbonyl]amino]benzoic acid], the “activity in rhino mouse utriculi reduction model (in words)” value (rhino mouse utriculi) is reported as “inactive”.

With `Cn1cccc1C1=CCC(C)(C)c2ccc(C(=O)Nc3ccc(C(=O)O)cc3)cc21` [I^2 g, 4-[[[[5,6-Dihydro-5,5-dimethyl-8-(2-N-methylpyrolyl)]-2-naphthalenyl]carbonyl]amino]benzoic acid] the “ED30 (concentration to reach 30% (half-maximum) utriculi reduction)” value (rhino mouse utriculi) was 2070 µM.
